Laboratory results reported in patent US20040062764A1, “Chemoprotectant for gastric toxicity” (priority 2003, published 2004).
Values after ≈ are worked out from the molar mass of the structure shown. “Also recorded” adds a separate entry of the source. Read-outs that look alike come from different tables or passages of the source.

Columns and labels:
[1] = test system: normal human gastric cells (NHGC); details: for percent viable gastric cells, BR96-DOX plus chemoprotectant (FIGS. 3 and 4): with or without BSO pretreatment
Protocol: Cytotoxicity was assessed in cultured normal human gastric cells (NHGC), using the WST colorometric assay for live cells. Cells were treated with approximately LD90 dose of BR96-DOX, immediately followed by NAC at the indicated concentrations.
(§1) A NHGC cell line and a human gastric carcinoma cell line (AGS) were obtained.

[2] = test system: human gastric carcinoma cell line (AGS); assay: Cytotoxicity dose response in gastric carcinoma cells; details: for cell survival, comparison of combinations (FIGS. 5 and 6): NAC+BSO+BR96-DOX versus BR96-DOX+BSO without NAC; for EC50: Homo sapiens, AGS
Protocol: as §1
The dose response curves for BR96-DOX and doxorubicin with or without the addition of buthionine sulfoximine (BSO) at a concentration of 100 μM were assessed.

[3] = test system: low-expressor and high-expressor subclones of the LX-1 SCLC cell line; assay: BSO cytoenhancement in LX-1 SCLC subclones; assay type: cell-based, human; details: low- and high-expressor LX-1 subclones
GSH = assay: Blood and tissue GSH levels, colorometric kit; assay type: in vivo, nude rats; details: BSO 10 g/m^2 i.p. b.i.d. x 3 days; even in brain and intracerebral tumor
Protocol: (§2) NAC biodistribution was determined with radiolabelled tracer (n=12). Blood and tissue GSH levels were measured with a colorometric kit 9 (n=19). For bone marrow toxicity studies, rats were treated with or without BSO (10 g/m^2 i.p. b.i.d.×3 days), followed by chemotherapy consisting of intra-carotid carboplatin (200 mg/m^2), melphalan (10 mg/m^2) and etoposide phosphate (100 mg/m^2) (n=61). The dose of NAC was 1200 mg/m^2 and STS was 8 gm/m^2. White blood cell and platelet counts were obtained prior to, at 6 days and 9-10 days after chemotherapy.

bone marrow = assay: Bone marrow toxicity study after intra-carotid combination chemotherapy
Protocol: as §2

B.5 LX-1 SCLC cells = assay: WST colorometric live-cell assay, NAC chemoprotection against alkylating chemotherapy; assay type: cell-based; details: Homo sapiens; approx. LD90 chemotherapy (melphalan 20 μM, carboplatin 200 μM, cisplatin 20 μM); NAC added immediately after; all three drugs; read-out: NAC concentration for half-maximal protection against cell death
Protocol: Cytotoxicity was assessed in cultured B.5 LX-1 SCLC cells, using the WST colorometric assay for live cells. Cells were treated with approximately LD90 dose of chemotherapy (melphalan=20 μM, carboplatin=200 μM, cisplatin=20 μM). Immediately following chemotherapy, NAC chemoprotectant was added at the indicated concentration. NAC protected against cell death by all three chemotherapeutic drugs, with half-maximal protection found between 0.1 mg/ml NAC and 0.3 mg/ml NAC.

[4] = NAC biodistribution with radiolabelled tracer; assay type: in vivo, rat
Protocol: as §2

[5] = after a bolus injection; cited from earlier work

Q: For `CCCCS(=N)(=O)CCC(N)C(=O)O` (stereo not shown) [BSO, buthionine sulfoximine], which “effect of BSO on cytotoxicity of BR96-DOX or doxorubicin in normal gastric cells” value ([1]; NHGC) is on record?
A: Its value is “did not increase toxicity; also recorded: did not enhance the cytotoxicity”.

Q: And the “effect of BSO on cytotoxicity in carcinoma cells” value [2]?
A: Its value is “enhanced cytotoxicity”.

Q: What about the “cell survival, comparison of combinations (FIGS. 5 and 6)” value [2] of the same compound?
A: Its value is “least survival”.

Q: What about the “effect of BSO on cytotoxicity of BR96-DOX or doxorubicin” value [3] of the same compound?
A: Its value is “did not enhance the cytotoxicity”.

Q: And the “reduction of blood and tissue GSH levels” value (GSH)?
A: Its value is 50-65%.

Q: And the “bone marrow toxicity of combination chemotherapy” value (bone marrow; BSO pretreatment, intra-carotid carboplatin, melphalan, etoposide phosphate)?
A: The value was “enhanced the bone marrow toxicity”.

Q: What does the source list for `CCOC(=O)CNC(=O)[C@H](CS)NC(=O)CC[C@H](N)C(=O)O` [GSH ethyl ester]?
A: reduction of BR96-DOX cell kill, other chemoprotective agents ([1]; NHGC): 15-20%; percent viable gastric cells, BR96-DOX plus chemoprotectant (FIGS. 3 and 4) [1]: second highest amount of viable gastric cells

Q: For `CC(=O)N[C@@H](CS)C(=O)O` [NAC, N-acetylcysteine], which EC50 (B.5 LX-1 SCLC cells) is on record?
A: The EC50 was 100 to 300 µg/mL (≈ 613 to 1840 µM).

Q: And the “protection against BR96-DOX cytotoxicity in normal gastric cells” value ([1]; NHGC)?
A: The value was “protected the normal gastric cells; also recorded: at least partially protective; also recorded: protective independent of the presence of BSO”.

Q: What about the “reduction of BR96-DOX cell kill” value ([1]; NHGC, experiment 1) of the same compound?
A: The value was 25%.

Q: What about the “reduction of BR96-DOX cell kill” value ([1]; NHGC, experiment 2) of the same compound?
A: Its value is 95%.

Q: What about the “reduction of BR96-DOX cell kill” value ([1]; NHGC, experiment 3) of the same compound?
A: Its value is 55%.

Q: And the “protective NAC concentration relative to that required against alkylating chemotherapeutics” value ([1]; NHGC/BR96-DOX vs B.5 LX-1/alkylators)?
A: The value was 10 fold.

Q: What about the “percent viable gastric cells, BR96-DOX plus chemoprotectant (FIGS. 3 and 4)” value [1] of the same compound?
A: Its value is “increased the percentage of viable gastric cells”.

Q: What about the “effect on BSO-enhanced BR96-DOX cytotoxicity” value [2] of the same compound?
A: The value was “did reverse the enhanced cytotoxicity”.

Q: And the “effect on response to BR96-DOX” value ([2]; AGS cells not treated with BSO)?
A: Its value is “did not alter the response”.

Q: What about the “cell survival, comparison of combinations (FIGS. 5 and 6)” value [2] of the same compound?
A: Its value is “greatest amount of cells survived”.

Q: What about the “systemic delivery of radiolabelled NAC” value ([4]; aortic infusion) of the same compound?
A: Its value is “increasing systemic delivery”.

Q: And the “brain delivery of radiolabelled NAC” value ([4]; aortic infusion (retrograde left external carotid, left internal carotid occluded))?
A: Its value is “negligible levels”.

Q: What about the “brain delivery of radiolabelled NAC” value ([4]; intraarterial, right carotid artery) of the same compound?
A: The value was “high delivery to the right cerebral hemisphere”.

Q: What about the granulocytes at nadir (bone marrow; day 6, NAC 1200 mg/m^2 aortic infusion before intra-carotid chemotherapy, no BSO, no NAC: 146±160, p<0.02) of the same compound?
A: Its granulocytes at nadir is 785±494.

Q: What about the platelets at nadir (bone marrow; day 6, NAC 1200 mg/m^2 aortic infusion before intra-carotid chemotherapy, no BSO, no NAC: 215±126, p<0.02) of the same compound?
A: The platelets at nadir was 470±234.

Q: For `O=S([O-])([O-])=S.[Na+].[Na+]` [STS, sodium thiosulfate], which “reduction of BR96-DOX cell kill, other chemoprotective agents” value ([1]; NHGC) is on record?
A: Its value is “no significant effect”.

Q: What about the plasma half life [5] of the same compound?
A: Its plasma half life is “about 17 minutes”.

Q: Which “reduction of BR96-DOX cell kill, other chemoprotective agents” value ([1]; NHGC) does the source give for `CSCC[C@@H](N)C(=O)O` [d-Methionine, D-methionine] here?
A: The value was “no significant effect”.

Q: With `COc1cccc2c1C(=O)c1c(O)c3c(c(O)c1C2=O)C[C@@](O)(C(=O)CO)C[C@@H]3O[C@H]1C[C@H](N)[C@H](O)[C@H](C)O1` [doxorubicin] as the compound, how does the EC50 ([2]; read-out: half maximal cytotoxic dose (EC50), AGS cells, absence of BSO) read?
A: Its EC50 is 0.1 µg/mL (≈ 0.184 µM).

Q: And the EC50 ([2]; read-out: half maximal cytotoxic dose (EC50), AGS cells, pretreatment with BSO 100 μM)?
A: The EC50 was roughly 0.05 µg/mL (≈ 0.092 µM).
